Experimental data published in paper PMC4949581 (ACS Chemical Biology, 2016).

What was measured:
Type in all cases: biochemical
TxGH116 β-glucosidase [1] = target: T1, TxGH116 β-glucosidase (Thermoanaerobacterium xylanolyticum, UniProt F6BL85); test: crystal structure
T1 sequence (F6BL85 19-806): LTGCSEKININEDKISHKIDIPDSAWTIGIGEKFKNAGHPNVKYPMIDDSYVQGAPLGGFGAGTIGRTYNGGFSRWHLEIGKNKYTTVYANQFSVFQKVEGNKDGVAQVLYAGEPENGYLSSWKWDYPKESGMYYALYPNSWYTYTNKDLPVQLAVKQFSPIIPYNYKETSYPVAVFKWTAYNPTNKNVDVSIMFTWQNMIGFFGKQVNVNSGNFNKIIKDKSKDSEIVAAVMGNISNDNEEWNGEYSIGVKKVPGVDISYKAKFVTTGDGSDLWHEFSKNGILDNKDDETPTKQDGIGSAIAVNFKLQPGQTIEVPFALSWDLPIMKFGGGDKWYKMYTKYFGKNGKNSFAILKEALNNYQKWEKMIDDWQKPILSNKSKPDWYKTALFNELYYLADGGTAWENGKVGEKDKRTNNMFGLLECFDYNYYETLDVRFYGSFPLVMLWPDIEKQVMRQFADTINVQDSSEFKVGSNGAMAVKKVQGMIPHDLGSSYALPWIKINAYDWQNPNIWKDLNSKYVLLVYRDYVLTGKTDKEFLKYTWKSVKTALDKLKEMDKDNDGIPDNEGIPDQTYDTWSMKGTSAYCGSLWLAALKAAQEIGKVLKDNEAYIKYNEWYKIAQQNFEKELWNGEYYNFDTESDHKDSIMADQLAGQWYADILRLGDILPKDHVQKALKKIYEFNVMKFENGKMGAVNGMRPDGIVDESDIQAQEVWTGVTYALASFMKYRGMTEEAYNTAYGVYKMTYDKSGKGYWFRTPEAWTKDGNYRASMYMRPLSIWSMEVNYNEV

TxGH116 β-glucosidase [2] = target: T1, TxGH116 β-glucosidase; test: crystal structure; remark: listed apart in the source
TxGH116 β-glucosidase [3] = target: T1, TxGH116 β-glucosidase; test: inhibition of 4NPGlc hydrolysis, Lineweaver–Burk
TxGH116 β-glucosidase [4] = target: T1, TxGH116 β-glucosidase; test: inactivation of the purified enzyme

`OC[C@H]1NC[C@H](O)[C@@H](O)[C@@H]1O` [DNJ, deoxynojirimycin] showed a Ki (TxGH116 β-glucosidase [1]) of 0.13 ± 0.01 µM.
With `OC[C@H]1O[C@@H](O)[C@H](O)[C@@H](O)[C@@H]1O` [Glc, D-glucose] the Ki (TxGH116 β-glucosidase [2]) was 4000 ± 300 µM.
With `OC[C@H]1CNC[C@@H](O)[C@@H]1O` [IFG, isofagomine] the Ki (TxGH116 β-glucosidase [3]) was 0.0029 ± 0.0001 µM.
With `OC[C@@H]1[C@@H](O)[C@H](O)[C@@H](O)[C@@H]2O[C@H]12` [cyclophellitol] the “inactivation of the purified enzyme” value (TxGH116 β-glucosidase [4]) was “cyclophellitol, a related epoxide that contains a hydroxymethyl group corresponding to the hydroxymethyl group of glucose, rapidly inactivated TxGH116”.
